Drawing on ChEMBL document CHEMBL4406828, “Conformational restriction design of thiophene-biphenyl-DAPY HIV-1 non-nucleoside reverse transcriptase inhibitors” (Eur J Med Chem, 2019), this text covers IC50, CC50 and EC50 for eight molecules.

For data set [1], the target named is Human immunodeficiency virus type 1 reverse transcriptase (Human immunodeficiency virus 1, UniProt Q72547). As to the kind of experiment: Inhibition of recombinant HIV-1 reverse transcriptase p66/p51 incubated for 40 mins by picogreen dye based spectrofluorometric assay.
Data set [2] is described as follows: Cytotoxicity against human MT4 cells assessed as reduction in cell viability incubated for 4 days by MTT assay. In kind it is cell-based.
The subject of data set [3] is Human immunodeficiency virus 1. As to the kind of experiment: Antiviral activity against HIV-1 harboring reverse transcriptase E138K mutant infected in human MT4 cells assessed as reduction in virus-induced cytopathic effect incubated for 4 days by MTT assay. The class given is functional, organism-based. The conditions noted are these: Human immunodeficiency virus 1, MT4, 96 h.

In data set [4] the test system is Human immunodeficiency virus 1. The data set can be described thus: Antiviral activity against HIV-1 harboring reverse transcriptase K103N mutant infected in human MT4 cells assessed as reduction in virus-induced cytopathic effect incubated for 4 days by MTT assay. In kind it is functional, organism-based. The conditions noted are these: Human immunodeficiency virus 1, MT4, 96 h.

Data set [5] concerns Human immunodeficiency virus 1. The data set can be described thus: Antiviral activity against HIV-1 harboring reverse transcriptase Y181C mutant infected in human MT4 cells assessed as reduction in virus-induced cytopathic effect incubated for 4 days by MTT assay. In kind it is functional, organism-based. The conditions noted are these: Human immunodeficiency virus 1, MT4, 96 h.

The test system of data set [6] is Human immunodeficiency virus 1. The data set can be described thus: Antiviral activity against HIV-1 harboring reverse transcriptase L100I mutant infected in human MT4 cells assessed as reduction in virus-induced cytopathic effect incubated for 4 days by MTT assay. In kind it is functional, organism-based. The conditions noted are these: Human immunodeficiency virus 1, MT4, 96 h.

Structures are written as SMILES. Bounds are passed on as bounds.

For `Cc1cc(-c2ccc(Oc3nc(Nc4ccc(C#N)cc4)nc4ccsc34)cc2C)ccc1C#N`, the IC50 in data set [1] was 42 nM.

For the molecule `Cc1cc(-c2ccc(C#N)cc2F)ccc1Oc1nc(Nc2ccc(C#N)cc2)nc2ccsc12`, the IC50 in data set [1] was 62 nM. For the molecule `N#Cc1ccc(Nc2nc(Oc3ccc(-c4ccc(C#N)c(Cl)c4)cc3Cl)c3sccc3n2)cc1`, in data set [1], the IC50 amounted to 31 nM.

`Cc1cc(C#N)ccc1-c1ccc(Oc2nc(Nc3ccc(C#N)cc3)nc3ccsc23)cc1C`: the IC50 in data set [1] turned out to be 27 nM. Take `N#Cc1ccc(Nc2nc(Oc3ccc(-c4ccc(C#N)cc4F)cc3)c3sccc3n2)cc1`: in data set [1], the IC50 was found to be 65 nM. As for `O=C1Nc2ccc(Cl)cc2[C@@](C#CC2CC2)(C(F)(F)F)O1` [EFAVIRENZ], the CC50 at 96 h in data set [2] is more than 6340 nM.

Consider `Cc1cc(C#N)cc(C)c1Oc1nc(Nc2ccc(C#N)cc2)nc(N)c1Br` [ETRAVIRINE], for which the CC50 at 96 h in data set [2] is more than 4610 nM. On to `Cc1ccnc2c1NC(=O)c1cccnc1N2C1CC1` [NEVIRAPINE], for which, in data set [2], the CC50 at 96 h is more than 15000 nM. The EC50 in data set [3] was 200 nM; in data set [4], more than 9550 nM; in data set [5], more than 15000 nM; in data set [6], 1990 nM.
